Assay results reported in US20220356163A1, “SMALL MOLECULE INHIBITORS OF Id PROTEINS” (MEMORIAL SLOAN KETTERING CANCER CENTER, priority 2019, published 2022).

Experiments:
[1] = tested on: MDA-MB-436; assay: MTT assay, MDA-MB-436; type: cell-based; conditions: Homo sapiens, 24 h, MDA-MB-436, TNBC cell line, read-out: IC50 value after 24 hours of treatment
Excerpt: The 4T1 murine mammary tumor cell line and nine breast cancer cell lines representing the major breast cancer subtypes (ER+, HER2+, and TNBC) including MDA-MB-157, MDA-MB-436, MDA-MB-231, MDA-MB-453, MDA-MB-361, BT-474, SK-BR-3, MCF-7 and T47-D will be grown in RPMI or DMEM (Dulbecco's Modified Eagle Medium) media supplemented with 10% FBS (fetal bovine serum), 1% penicillin-streptomycin and 1% L-Glutamine. Patient derived xenograft cell lines BR7, BR11, and IBT will be established directly from breast cancer bone metastases specimens surgically resected from patients with informed consent. BR7 and BR11 specimens will be obtained from ER positive (HER2 negative and PR negative) metastatic breast cancer patients, while the IBT specimen will be obtained from a metastatic, triple negative breast cancer patient. Fresh tumor tissues will be quickly washed with ice cold PBS and minced into about 1-3 mm pieces in MEM medium (without FBS) using sterile razor blades. […] The cells will be treated with either 100 μM DMSO, AGX51, or a compound of the present technology such as AGX-A. The cell morphology and growth will be monitored daily for 1 week by microscopy for changes in morphology or cell death. […] Absorbance will then measured at 570 nm using a plate reader (Synergy 2, BioTek). […]

[2] = tested on: HCT116 cells; assay: HCT116 MTT viability, cell cycle and Cyclin D1; type: cell-based; conditions: HCT116, 40 μM
Method: Immunoblotting. For immunoblotting, cells were collected by trypsinization, washed with PBS and lysed in homogenization buffer (0.3 M sucrose, 10 mM Tris (pH 8.0), 400 mM sodium chloride, 3 mM magnesium chloride, 0.5% NP40/IGEPAL, 100 μg/mL Aprotinin+Protease inhibitor cocktail (Roche #11 836 153 001). Proteins were separated by SDS-PAGE, transferred to a membrane (LI-COR), probed with primary antibodies overnight at 4° C., and probed with secondary antibodies (LI-COR) for 1-2 hours at room temperature. Proteins were visualized using the LI-COR Odyssey Infrared Imaging detection system. The following primary antibodies were used Id1, Id2, Id3, Id4 (195-14, 9-2-8, 17-3, 82-12, respectively, all from Biocheck), Cyclin D1 (2978, Cell Signaling), Actin (A2066, Sigma), Tubulin (T4026, Sigma). Western blot quantification was carried out using channel 700 and channel 800 intensity data from Odyssey application software version 3.0.30 (LI-COR), subtracting blank values and normalizing to Tubulin.
Cell viability assays. Cell lines were seeded in a 96 well plate (5000 cells per well). After overnight incubation, cells were treated with AGX51 and incubated for 24 hours then MTT reagent (5 mg/mL) was added per well and the cells were incubated for four hours. Following incubation, media was aspirated and 200 μL DMSO was added per well. Absorbance was then measured at 570 nm using a plate reader (Synergy 2, BioTek). Cell growth profiles were determined by seeding 38,000 cells in a 24-well plate, in triplicate for each time point, and counting the cells on days 1, 3 and 5 after seeding, using trypan blue exclusion of dead cells.
Cell cycle analysis. […] For cell cycle analysis cells were centrifuged 1000 rpm for 5 minutes, washed with 1×PBS and then resuspended in 0.5 mL PI/RNase staining buffer (550825, BD Biosciences), incubated for 15 minutes at room temperature and analyzed by flow cytometry (LSR II).

[3] = tested on: PDX RomeP_PHCH_X_0008a; assay: Murine PDX model of cholangiocarcinoma, Round 1 (AGX-A in DMSO); type: in vivo, mouse
Method: A first round of the study (“Round 1”) was planned as indicated in the Round 1 Study Protocol blow, utilizing gemcitabine in saline and AGX-A in DMSO for administration. • Mice: NSG females, 6-8 weeks old • […], serially transplanted sc with matrigel • Treatment Groups (at least 6 animals/group): treatments started when tumors reached 100 mm^3 (“Day 0” for each animal) • Group 1. Saline, i.p. once a week (“QW”) for 3-4 weeks (“×3-4 weeks”) • Group 2. Gemcitabine 25 mg/kg i.p. QW×3-4 weeks • Group 3. AGX-A 10 mg/kg i.p. once a day for 5 consecutive days (“QD×5”)×3-4 weeks • Group 4. Gemcitabine 25 mg/kg […] 10 mg/kg i.p. QD×5×3-4 weeks Tumor volumes, weights, and clinical signs were monitored a minimum of twice per week for each animal in each group throughout the study. In the Round 1 study, it was observed that animal weight in Groups 1 and 2 was essentially unchanged for the duration of the study. […] Because of this, treatment in Groups 3 and 4 was halted after Day 9 while tumor volumes, weights, and clinical signs continued to be monitored a minimum of twice per week for each subject in each group. Subsequently, the animals in Groups 3 and 4 stopped loosing weight and instead started regaining weight. Meanwhile, treatment in Groups 1 and 2 continued as planned. Due to the alterations in the planned study, Round 1 was concluded at Day 20.

| SMILES | IC50 [1] [µM] | Cyclin D1 levels ([2]; 0-48 hours) | cell cycle ([2]; 4-24 hours) | cell viability ([2]; 24 hours) | tumor volume ([3]; AGX-A 10 mg/kg i.p. QD×5 in DMSO, treatment discontinued at 9 days, vs gemcitabine 25 mg/kg QW) | animal weight ([3]; AGX-A in DMSO, Groups 3 and 4) |
| --- | --- | --- | --- | --- | --- | --- |
| CCC(=O)N(CCC(c1ccc2c(c1)OCO2)c1ccccc1OC)Cc1ccccc1 (racemic) [AGX51, N-(3-(benzo[d][1,3]dioxol-5-yl)-3-(2-methoxyphenyl)propyl)-N-benzylpropionamide] | 30.9 | reduction in Cyclin D1 levels | G0/G1 growth arrest | reduced cell viability | – | – |
| COc1ccccc1C(CCNCc1ccccc1)c1ccc(OC(C)C)cc1 (stereo not drawn) [AGX-A, N-benzyl-3-(4-isopropoxyphenyl)-3-(2-methoxyphenyl)propan-1-anine] | – | – | – | – | performs better than the SOC drug gemcitabine | weight loss was observed |
